Data from the supplement of paper PMC10307832.

Key:
Assay in all cases: relative viability (nuclei count vs DMSO), 5 days (fraction); higher = more cells survive
[1] = compound: CCN1CCN(c2ccc(Nc3cc(N(C)C(=O)Nc4c(Cl)c(OC)cc(OC)c4Cl)ncn3)cc2)CC1 [BGJ398] + O=C(c1cc(Cc2n[nH]c(=O)c3ccccc23)ccc1F)N1CCN(C(=O)C2CC2)CC1 [Olaparib] (partner 8 µM)
Method in brief: (§1)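 Relative viability is defined as nuclei in treated wells over nuclei in vehicle wells. Duplicate plates were run and medians reported. Lung cancer cell lines in 1536-well plates were dosed by pin tool one day after seeding, with one drug or with a fixed anchor-drug dose plus five library-drug doses (not always all listed) in √10 steps, and nuclei were counted after 5 days.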

[2] = compound: CCN1CCN(c2ccc(Nc3cc(N(C)C(=O)Nc4c(Cl)c(OC)cc(OC)c4Cl)ncn3)cc2)CC1 [BGJ398] + CC(=O)c1c(C)c2cnc(Nc3ccc(N4CCNCC4)cn3)nc2n(C2CCCC2)c1=O [Palbociclib] (partner 0.5 µM)
Method in brief: as §1

[3] = compound: C1=CC2=NC=CN=C2C=C1/C=C/3\C(=O)NC(=O)S3 + CC(=O)c1c(C)c2cnc(Nc3ccc(N4CCNCC4)cn3)nc2n(C2CCCC2)c1=O [Palbociclib] (partner 0.5 µM)
Method in brief: as §1

[4] = compound: CCN1CCN(c2ccc(Nc3cc(N(C)C(=O)Nc4c(Cl)c(OC)cc(OC)c4Cl)ncn3)cc2)CC1 [BGJ398] + CS(=O)(=O)N1CCN(Cc2cc3nc(-c4cccc5[nH]ncc45)nc(N4CCOCC4)c3s2)CC1 [Pictilisib] (partner 1 µM)
Method in brief: as §1

| Cell Line | relative viability ([1]; first compound 0.01 µM) | relative viability ([1]; first compound 0.03162 µM) | relative viability ([1]; first compound 0.1 µM) | relative viability ([1]; first compound 0.3162 µM) | relative viability ([1]; first compound 1 µM) | relative viability ([2]; first compound 0.01 µM) | relative viability ([2]; first compound 0.03162 µM) | relative viability ([2]; first compound 0.1 µM) | relative viability ([2]; first compound 0.3162 µM) | relative viability ([2]; first compound 1 µM) | relative viability ([3]; first compound 0.02 µM) | relative viability ([3]; first compound 0.06325 µM) | relative viability ([3]; first compound 0.2 µM) | relative viability ([3]; first compound 0.6325 µM) | relative viability ([3]; first compound 2 µM) | relative viability ([4]; first compound 0.01 µM) | relative viability ([4]; first compound 0.03162 µM) | relative viability ([4]; first compound 0.1 µM) | relative viability ([4]; first compound 0.3162 µM) | relative viability ([4]; first compound 1 µM) |
| --- | --- | --- | --- | --- | --- | --- | --- | --- | --- | --- | --- | --- | --- | --- | --- | --- | --- | --- | --- | --- |
| 201T | 0.907 | 0.791 | 0.858 | 0.822 | 0.843 | 0.387 | 0.358 | 0.356 | 0.349 | 0.268 | 0.341 | 0.347 | 0.349 | 0.358 | 0.343 | 0.804 | 0.659 | 0.641 | 0.652 | 0.559 |
| A549 | 0.341 | 0.436 | 0.6 | 0.231 | 0.231 | – | – | – | – | – | – | – | – | – | – | 0.486 | 0.475 | 0.453 | 0.535 | 0.596 |
| A-427 | 0.746 | 0.713 | 0.761 | 0.736 | 0.538 | 0.524 | 0.488 | 0.49 | 0.435 | 0.393 | 0.498 | 0.561 | 0.507 | 0.524 | 0.533 | 0.622 | 0.644 | 0.506 | 0.334 | 0.158 |
| ABC-1 | 0.864 | 0.934 | 0.887 | – | 0.616 | 0.647 | 0.593 | 0.584 | – | 0.945 | 0.75 | 0.699 | 0.726 | 0.662 | 0.645 | 0.63 | 0.721 | 0.722 | 0.693 | 0.916 |
| BEN | 1.09 | 1.19 | 1.18 | 0.991 | 0.861 | 0.522 | 0.457 | 0.43 | 0.481 | 0.401 | 0.491 | 0.422 | 0.492 | 0.475 | 0.448 | 0.491 | 0.609 | 0.534 | 0.478 | 0.473 |
| CAL-12T | 0.688 | 0.819 | 0.613 | 0.773 | 0.666 | 0.44 | 0.504 | 0.516 | 0.49 | 0.352 | 0.394 | 0.664 | 0.454 | 0.48 | 0.403 | 0.423 | 0.441 | 0.532 | 0.409 | 0.342 |
| COR-L23 | 0.337 | 0.337 | 0.308 | 0.337 | 0.313 | 0.299 | 0.332 | 0.269 | 0.288 | 0.273 | 0.276 | 0.281 | 0.295 | 0.3 | 0.235 | 0.691 | 0.826 | 0.788 | 0.808 | 0.87 |
| COR-L 105 | 0.627 | 0.647 | 0.687 | 0.733 | 0.639 | 0.47 | 0.357 | 0.445 | 0.378 | 0.383 | 0.429 | 0.423 | 0.387 | 0.349 | 0.412 | 0.314 | 0.442 | 0.417 | 0.328 | 0.387 |
| Calu-6 | 0.599 | 0.605 | 0.578 | 0.58 | 0.59 | – | – | – | – | – | – | – | – | – | – | 0.848 | 0.987 | 0.935 | 0.898 | 0.991 |
| ChaGo-K-1 | 0.42 | 0.423 | 0.437 | 0.387 | 0.434 | 0.914 | 0.959 | 0.944 | 0.962 | 0.923 | 0.888 | 0.69 | 0.971 | 0.917 | 0.947 | 0.802 | 0.702 | 0.561 | 0.608 | 0.314 |
| EBC-1 | 0.717 | 0.717 | 0.679 | 0.737 | 0.668 | – | – | – | – | – | – | – | – | – | – | 0.41 | 0.414 | 0.357 | 0.515 | 0.451 |
| EKVX | 0.872 | 0.884 | 0.812 | 0.74 | 0.696 | 0.436 | 0.291 | 0.384 | 0.359 | 0.394 | 0.384 | 0.428 | 0.342 | 0.381 | 0.405 | 0.437 | 0.395 | 0.479 | 0.406 | 0.46 |
| EMC-BAC-2 | 0.456 | 0.568 | 0.519 | 0.547 | 0.456 | 0.497 | 0.558 | 0.547 | 0.568 | 0.516 | 0.496 | 0.568 | 0.54 | 0.498 | 0.384 | 0.503 | 0.561 | 0.513 | 0.476 | 0.465 |
| EPLC-272H | 0.626 | 0.829 | 0.594 | 0.797 | 0.656 | 0.32 | 0.314 | 0.324 | 0.359 | 0.358 | 0.327 | 0.25 | 0.349 | 0.344 | 0.292 | 0.323 | 0.296 | 0.255 | 0.255 | 0.18 |
| H3255 | 0.527 | 0.537 | 0.604 | 0.551 | 0.55 | 0.281 | 0.321 | 0.314 | 0.315 | 0.314 | 0.328 | 0.342 | 0.314 | 0.318 | 0.307 | 0.484 | 0.138 | 0.462 | 0.344 | 0.506 |
| HARA | 0.983 | 0.651 | 0.875 | 0.902 | 0.722 | 0.242 | 0.257 | 0.228 | 0.289 | 0.188 | 0.27 | 0.261 | 0.241 | 0.213 | 0.238 | 0.346 | 0.426 | 0.371 | 0.283 | 0.185 |
| HCC-15 | 0.699 | 0.749 | 0.712 | 0.732 | 0.725 | 0.713 | 0.743 | 0.79 | 0.769 | 0.753 | 0.708 | 0.715 | 0.71 | 0.725 | 0.657 | 0.67 | 0.703 | 0.79 | 0.805 | 0.723 |
